Source: US6455551B1, “Use of 1-hydroxy-2-pyridones for treating mucosa diseases which are difficult to treat” (Aventis Pharma Deutschland GmbH, priority 1996, dated 2002)
In brackets after ≈: the same amount, converted by molar mass. Like-named read-outs stand apart in the source and are kept apart here.

Experiments:
Format in all cases: cell-based
Trichomonas vaginalis = test: In vitro activity on protozoa, Trichomonas vaginalis
Text: (§1) In vitro activity of the Compound 1 on protozoa

Entamoeba histolytica = test: In vitro activity on protozoa, Entamoeba histolytica
Text: as §1

Candida albicans = test: Microtiter dilution MIC test in RPMI 1640 medium, Candida albicans strains; details: read-out: Minimum inhibitory concentration (MIC)
Protocol: (§2) Fluconazole-resistant strains of Candida albicans are isolated from patients who have been treated, for example, with fluconazole for more than one year. For this purpose, samples are taken from the patients' mouths and applied, undiluted or diluted 1:100, to an RPMI 1640 agar (Gibco/BRL, Life Technologies GmbH, D-76339 Eggenstein) which contains about 1.0 μg/ml fluconazole. Resistant Candida albicans strains are isolated, further purified on agar and stored isolated in peptone/dextrose slant agar tubes.
(§3) The activity of Compound 1 and fluconazole is determined by the microtiter dilution technique in RPMI 1640 medium. The growth medium RPMI 1640 buffered with 0.165 M morpholinopropanesulfonic acid pH 7.0 is introduced into 96-well microtiter plates. Serial dilutions by a factor of 2 are prepared for Compound 1 and fluconazole to result in final concentrations of 256 to 0.002 μg/ml of Compound 1 and fluconazole. The microtiter plates prepared in this way are incubated with the Candida strains to be tested. For comparison purposes, the two Candida albicans strains ATCC 90028 and 90029 which are not resistant to fluconazole are included in the test. The initial cell count is 1-5 ×10^3 colony-forming units per ml of growth medium. The microtiter plates are incubated at 35° C. for 48 hours. The minimum inhibitory concentration is determined by photometry at 510 nm.

Candida guillermondii = test: Microtiter dilution MIC test in RPMI 1640 medium, Candida guillermondii strain; details: Candida guillermondii B47; 35° C., 48 hours; read-out: Minimum inhibitory concentration (MIC)
Protocol: as §2, §3

Candida krusei = test: Microtiter dilution MIC test in RPMI 1640 medium, Candida krusei strains; details: Pichia kudriavzevii, 48 h, read-out: Minimum inhibitory concentration (MIC)
Protocol: as §2, §3

Candida glabrata = test: Microtiter dilution MIC test in RPMI 1640 medium, Candida glabrata strains; details: Nakaseomyces glabratus, 48 h, read-out: Minimum inhibitory concentration (MIC)
Protocol: as §3

[1] = 48 h, Candida albicans 94/3, 35° C.
[2] = 48 h, Candida albicans 94/14, 35° C.
[3] = 48 h, Candida albicans 94/57, 35° C.
[4] = 48 h, Candida albicans 94/62, 35° C.
[5] = 48 h, Candida albicans 94/90, 35° C.
[6] = 48 h, Candida albicans 94/118, 35° C.
[7] = 48 h, Candida albicans 94/134, 35° C.
[8] = 48 h, Candida albicans 94/138, 35° C.
[9] = 48 h, Candida albicans 94/222, 35° C.
[10] = 48 h, Candida albicans 94/231, 35° C.
[11] = 48 h, Candida albicans B6, 35° C.
[12] = 48 h, Candida albicans B70, 35° C.
[13] = 48 h, Candida albicans B75, 35° C.
[14] = ATCC90028, 48 h, Candida albicans ATCC 90028 (not resistant to fluconazole), 35° C.
[15] = ATCC90029, 48 h, Candida albicans ATCC 90029 (not resistant to fluconazole), 35° C.

| MIC (Candida albicans; [1]) [µg/mL] | MIC (Candida albicans; [2]) [µg/mL] | MIC (Candida albicans; [3]) [µg/mL] | MIC (Candida albicans; [4]) [µg/mL] | MIC (Candida albicans; [5]) [µg/mL] | MIC (Candida albicans; [6]) [µg/mL] | MIC (Candida albicans; [7]) [µg/mL] | MIC (Candida albicans; [8]) [µg/mL] | MIC (Candida albicans; [9]) [µg/mL] | MIC (Candida albicans; [10]) [µg/mL] | MIC (Candida albicans; [11]) [µg/mL] | MIC (Candida albicans; [12]) [µg/mL] | MIC (Candida albicans; [13]) [µg/mL] | MIC (Candida albicans; [14]) [µg/mL] | MIC (Candida albicans; [15]) [µg/mL] | MIC (Candida guillermondii) [µg/mL] | MIC (Candida krusei; Candida krusei B1, 35° C.) [µg/mL] | MIC (Candida krusei; Candida krusei B4, 35° C.) [µg/mL] | MIC (Candida glabrata; Candida glabrata B12, 35° C.) [µg/mL] | MIC (Candida glabrata; Candida glabrata B14, 35° C.) [µg/mL] | Compound | further results |
| --- | --- | --- | --- | --- | --- | --- | --- | --- | --- | --- | --- | --- | --- | --- | --- | --- | --- | --- | --- | --- | --- |
| 2 (≈ 5.59 µM) | 2 (≈ 5.59 µM) | 1 (≈ 2.79 µM) | 1 (≈ 2.79 µM) | 1 (≈ 2.79 µM) | 2 (≈ 5.59 µM) | 1 (≈ 2.79 µM) | 1 (≈ 2.79 µM) | 1 (≈ 2.79 µM) | 1 (≈ 2.79 µM) | 1 (≈ 2.79 µM) | 1 (≈ 2.79 µM) | 1 (≈ 2.79 µM) | 1 (≈ 2.79 µM) | 0.5 (≈ 1.4 µM) | 1 (≈ 2.79 µM) | 0.5 (≈ 1.4 µM) | 1 (≈ 2.79 µM) | 0.5 (≈ 1.4 µM) | 0.5 (≈ 1.4 µM) | Cc1cc(COc2ccc(Oc3ccc(Cl)cc3)cc2)n(O)c(=O)c1 [Compound 1, 6-[4-(4-chlorophenoxy)phenoxymethyl]-1-hydroxy4-methyl-2(1H)-pyridone] | MIC (Trichomonas vaginalis; 2 of n = 5 strains investigated): 125 µg/mL (≈ 349 µM); MIC (Trichomonas vaginalis; 3 of n = 5 strains investigated): 31.2 µg/mL (≈ 87.2 µM); MIC (Entamoeba histolytica; 3 of n = 4 strains investigated): 62.5 µg/mL (≈ 175 µM); MIC (Entamoeba histolytica; remaining strain of n = 4 strains investigated (count not given)): 31.2 µg/mL (≈ 87.2 µM); MIC (Candida glabrata; Candida glabrata B18, 35° C.): 0.5 µg/mL (≈ 1.4 µM); MIC (Candida glabrata; Candida glabrata B21, 35° C.): 1 µg/mL (≈ 2.79 µM); MIC (Candida glabrata; Candida glabrata B35, 35° C.): 1 µg/mL (≈ 2.79 µM); MIC (Candida glabrata; Candida glabrata B37, 35° C.): 1 µg/mL (≈ 2.79 µM); MIC (Candida glabrata; Candida glabrata B38, 35° C.): 1 µg/mL (≈ 2.79 µM); MIC (Candida glabrata; Candida glabrata B39, 35° C.): 0.5 µg/mL (≈ 1.4 µM); MIC (Candida glabrata; Candida glabrata B40, 35° C.): 1 µg/mL (≈ 2.79 µM); MIC (Candida glabrata; Candida glabrata B50, 35° C.): 0.5 µg/mL (≈ 1.4 µM); MIC (Candida glabrata; Candida glabrata B51, 35° C.): 0.5 µg/mL (≈ 1.4 µM) |
| 32 (≈ 104 µM) | 32 (≈ 104 µM) | > 256 | > 256 | > 256 | > 256 | > 256 | > 256 | > 256 | > 256 | 1 (≈ 3.27 µM) | > 256 | 2 (≈ 6.53 µM) | 0.5 (≈ 1.63 µM) | 1 (≈ 3.27 µM) | 4 (≈ 13.1 µM) | 32 (≈ 104 µM) | 16 (≈ 52.2 µM) | 4 (≈ 13.1 µM) | 2 (≈ 6.53 µM) | OC(Cn1cncn1)(Cn1cncn1)c1ccc(F)cc1F [Fluconazole, fluconazole, reference compound] | MIC (Candida glabrata; Candida glabrata B18, 35° C.): 8 µg/mL (≈ 26.1 µM); MIC (Candida glabrata; Candida glabrata B21, 35° C.): 8 µg/mL (≈ 26.1 µM); MIC (Candida glabrata; Candida glabrata B35, 35° C.): 8 µg/mL (≈ 26.1 µM); MIC (Candida glabrata; Candida glabrata B37, 35° C.): 16 µg/mL (≈ 52.2 µM); MIC (Candida glabrata; Candida glabrata B38, 35° C.): 16 µg/mL (≈ 52.2 µM); MIC (Candida glabrata; Candida glabrata B39, 35° C.): 8 µg/mL (≈ 26.1 µM); MIC (Candida glabrata; Candida glabrata B40, 35° C.): 16 µg/mL (≈ 52.2 µM); MIC (Candida glabrata; Candida glabrata B50, 35° C.): 16 µg/mL (≈ 52.2 µM); MIC (Candida glabrata; Candida glabrata B51, 35° C.): 32 µg/mL (≈ 104 µM) |
